Laboratory results as given in PubChem BioAssay (NCI).
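Cells were grown in 96-well plates and exposed to each compound for 48 hours at five concentrations; endpoints were interpolated linearly between bracketing concentrations, or set to the highest concentration if not reached. TGI: concentration producing complete growth inhibition.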

How the values were obtained:
Assay in all cases: NCI tumour cell line growth inhibition, 48 h
[1] = tested on: NCI-H23 lung
[2] = tested on: U251 CNS
[3] = tested on: HL-60(TB) leukemia
[4] = tested on: SR leukemia
[5] = tested on: K-562 leukemia
[6] = tested on: LOX IMVI melanoma
[7] = tested on: SK-MEL-2 melanoma
[8] = tested on: CAKI-1 renal
[9] = tested on: MDA-MB-231 breast
[10] = tested on: MCF7 breast

Structure (SMILES)	TGI [1] [µM]	TGI [2] [µM]	TGI [3] [µM]	TGI [4] [µM]	TGI [5] [µM]	TGI [6] [µM]	TGI [7] [µM]	TGI [8] [µM]	TGI [9] [µM]	TGI [10] [µM]
O=C([O-])c1ccccc1Nc1ccccc1C(=O)[O-].[OH3+].[Zn+2]	28.9	33	49.4	> 63.7	88.7	44.9	40.4	8.45	–	–
C1=C2C3=[N+](CCCC3)CC2Cc2sccc21 (centres undefined)	> 100	> 100	> 100	–	> 100	> 100	> 100	> 100	> 100	> 100
COC(=O)c1ccc(NCC2=CC(=O)C=CC2=O)cc1O	36.6	> 100	–	> 100	> 100	37.5	> 100	32.8	34.7	76.3
O=c1c2ccccc2ncn1COCc1ccccc1	–	> 100	> 100	> 100	> 100	> 100	> 100	–	–	> 100
Cc1ccc(C(=O)C2C=C(c3ccc(C)cc3)SC3C=CCC32)cc1 (centres undefined)	53	32.5	> 100	58.2	> 100	39.5	36.8	42.4	43.8	–
COC(=O)CC(C(C(=O)OCc1ccccc1)C(C)O)N1C(=O)OCC1c1ccccc1 (centres undefined)	> 100	> 100	> 100	> 100	> 100	> 100	> 100	–	–	–
Cn1c2ccccc2c2c3c(c4c5ccccc5n(C)c4c21)C(=O)N(Cc1ccccc1)C3=O	> 100	> 100	–	51.6	> 100	> 100	> 100	> 100	> 100	> 100
O=CC1=CCCN(CCc2c[nH]c3ccccc23)C1	101	105	91.3	> 393	> 393	12.2	119	141	–	–
CCc1cc2c(cc1C(=O)CCC(=O)O)CC1(C2)Cc2cc(CC)c(C(=O)CCC(=O)O)cc2C1	> 100	> 100	> 100	–	> 100	> 100	> 100	> 100	> 100	> 100
CC1=C(C(=O)O)N2C(=O)[C@@H](NC(=O)C(c3ccccc3)N3CSC(=S)N(C(C)C)C3)C2SC1 (some centres undefined)	> 100	> 100	> 100	–	> 100	> 100	> 100	> 100	–	–
CCCC(=O)Nc1cc(/C=C/C(=O)N2CC(CCl)c3ccc([N+](=O)[O-])cc32)n(C)c1 (centres undefined)	> 100	> 100	–	> 100	> 100	> 100	> 100	> 100	> 100	> 100
CCCNC(=O)Cn1c2c(c3ccccc31)CCCC2	> 100	–	> 100	> 100	> 100	> 100	> 100	> 100	–	> 100
C=CC(=C)CCC(Br)C(C)(C)Br (centres undefined)	> 100	> 100	55.1	> 100	> 100	–	> 100	–	> 100	> 100
COP(=O)(/C=C/C(NC(=O)C(Cl)(Cl)Cl)c1ccccc1)OC (centres undefined)	> 100	> 100	> 100	–	> 100	> 100	> 100	> 100	> 100	> 100
COc1c(C)c(C/C=C(\C)CC/C=C(\C)CC/C=C(\C)CC/C=C(\C)CCC=C(C)C)c(OC)c(OC)c1OC	44.2	> 100	–	54.7	55.1	33.7	> 100	> 100	> 100	> 100
CC1(C)CC[C@]2(C)[C@@H](O)C[C@]3(C)C(=CC[C@@H]4[C@@]5(C)CC[C@H](O)C(C)(C)[C@@H]5CC[C@]43C)[C@@H]2C1	> 100	> 100	> 100	–	> 100	46.1	80.7	> 100	48.6	> 100
COC(=O)Cc1cccc2c(=O)c(S(=O)(=O)NC(=O)Nc3ccc(Cl)cc3)c(-c3ccccc3)oc12	> 100	> 100	–	> 100	> 100	> 100	–	74.3	> 100	> 100
C/C1=C\[C@@H](C)C[C@@H](C)OC(=O)[C@@H](C)NC(=O)[C@H](Cc2ccc(O)c(Br)c2)N(C)C(=O)CNC(=O)[C@H](C)C1	–	5.34	< 0.01	–	> 100	< 0.01	25.6	–	5.34	> 100

Structure (SMILES)	TGI [1] [µM]	TGI [2] [µM]	TGI [3] [µM]	TGI [4] [µM]	TGI [5] [µM]	TGI [6] [µM]	TGI [7] [µM]	TGI [8] [µM]	TGI [9] [µM]	TGI [10] [µM]
COC1CC(O[C@H]2CC[C@@]3(C)C(=CCC4(O)C3CCC35C(=O)OC6(C)O[C@@]43CCC65)C2)OC(C)C1O (some centres undefined)	> 100	> 100	> 100	> 100	> 100	–	> 100	> 100	–	–
OC(c1cc2ccccc2[nH]1)C(O)(c1cc2ccccc2[nH]1)c1cc2ccccc2[nH]1 (centres undefined)	21	78.4	127	> 245	> 245	41.8	50	51.9	–	–
C[C@H](CCC(=O)O)[C@H]1CC[C@H]2[C@@H]3[C@H](O)[C@H](O)[C@@H]4C[C@H](O)CC[C@]4(C)[C@H]3CC[C@]12C	> 100	> 100	> 100	–	> 100	> 100	> 100	> 100	> 100	> 100
CS(=O)(=O)c1ccc(C(=O)O[C@@H]2C(=O)N3CC[C@H]4OC(O)[C@@H]2[C@H]43)cc1 (some centres undefined)	> 100	> 100	–	> 100	> 100	> 100	> 100	> 100	> 100	> 100
Cc1ccc(N2C=Nn3c(nc4sc5c(c4c3=O)CCCC5)C2)cc1	> 100	> 100	–	–	> 100	> 100	> 100	> 100	> 100	> 100
N=C1c2ccccc2C(=O)c2c(NCCNCCO)ccc(O)c21	25.7	18.9	27.6	5.32	> 28.8	15.6	33.5	26.5	–	–
CC(=O)/C(=C/N1CC(=O)NC1=S)C(=O)Nc1ccccc1C	> 100	> 100	> 100	–	–	> 100	> 100	> 100	> 100	–
O=C(CSc1nc2ccc(I)cc2c(=O)n1Cc1ccccc1)NNC(=S)Nc1ccccc1	> 100	> 100	> 100	23.3	> 100	> 100	> 100	> 100	–	> 100
Cc1cc(OP2(=O)NCc3ccncc3O2)ccc1Cl (centres undefined)	> 100	> 100	–	> 100	> 100	> 100	> 100	> 100	> 100	> 100
CC(C)(Oc1ccc2c(=O)cc(-c3ccc(Cl)cc3)oc2c1)C(=O)Nc1c(Cl)cccc1Cl	> 100	> 100	> 100	> 100	> 100	> 100	> 100	> 100	–	–
Cc1c(C)c(S(=O)(=O)N(CCCN)OCCCN)c(C)c2c1OC(C)(C)CC2	27.9	24.1	–	33.4	29.6	26.1	32.1	30.1	17.6	29.1
CC1=C(O)C(=O)C2C(=O)C1C(C)C2c1ccccc1 (centres undefined)	> 100	> 100	–	> 100	> 100	> 100	> 100	> 100	–	–
COC(=O)[C@H](Cc1ccccc1)NC(=O)OCC1OC(n2cc(C)c(=O)[nH]c2=O)CC1N=[N+]=[N-] (some centres undefined)	> 100	> 100	> 100	–	> 100	> 100	> 100	> 100	> 100	> 100
COc1ccc(C/C=C(\C)CCO)cc1	> 100	> 100	–	> 100	> 100	> 100	> 100	94.3	> 100	> 100
C[n+]1c2ccccc2n2c3ccccc3c(NCc3ccco3)c(C#N)c21	8.92	13	8.69	–	> 21.1	3.65	6.51	7.36	16.6	11.9
CC(C)(C)c1ccc(NS(=O)(=O)c2ccc(N)cc2)cc1	67.9	39.2	38.1	–	41.7	33.1	36.5	99.4	68.1	39
O=C1C=CC(=O)c2c(O)c(NCCN3CCOCC3)c(Cl)c(O)c21	–	6.97	–	–	7.59	2.85	–	3.25	6.43	2.96
